Experimental findings from the Kinase Knowledgebase extract (Sharma et al. 2016) are described below.

The IC50 is the concentration that inhibits the measured activity by half. Low values mean higher potency, high ones lower potency.

Experiment [1] concerns the target EGFR (murine) (UniProt P00533). Conditions: f/l herc cells.
The target of experiment [2] is EGFR (human) (UniProt P00533). The following applies: kb.
EGFR (human), sequence (P00533 whole entry, looked up): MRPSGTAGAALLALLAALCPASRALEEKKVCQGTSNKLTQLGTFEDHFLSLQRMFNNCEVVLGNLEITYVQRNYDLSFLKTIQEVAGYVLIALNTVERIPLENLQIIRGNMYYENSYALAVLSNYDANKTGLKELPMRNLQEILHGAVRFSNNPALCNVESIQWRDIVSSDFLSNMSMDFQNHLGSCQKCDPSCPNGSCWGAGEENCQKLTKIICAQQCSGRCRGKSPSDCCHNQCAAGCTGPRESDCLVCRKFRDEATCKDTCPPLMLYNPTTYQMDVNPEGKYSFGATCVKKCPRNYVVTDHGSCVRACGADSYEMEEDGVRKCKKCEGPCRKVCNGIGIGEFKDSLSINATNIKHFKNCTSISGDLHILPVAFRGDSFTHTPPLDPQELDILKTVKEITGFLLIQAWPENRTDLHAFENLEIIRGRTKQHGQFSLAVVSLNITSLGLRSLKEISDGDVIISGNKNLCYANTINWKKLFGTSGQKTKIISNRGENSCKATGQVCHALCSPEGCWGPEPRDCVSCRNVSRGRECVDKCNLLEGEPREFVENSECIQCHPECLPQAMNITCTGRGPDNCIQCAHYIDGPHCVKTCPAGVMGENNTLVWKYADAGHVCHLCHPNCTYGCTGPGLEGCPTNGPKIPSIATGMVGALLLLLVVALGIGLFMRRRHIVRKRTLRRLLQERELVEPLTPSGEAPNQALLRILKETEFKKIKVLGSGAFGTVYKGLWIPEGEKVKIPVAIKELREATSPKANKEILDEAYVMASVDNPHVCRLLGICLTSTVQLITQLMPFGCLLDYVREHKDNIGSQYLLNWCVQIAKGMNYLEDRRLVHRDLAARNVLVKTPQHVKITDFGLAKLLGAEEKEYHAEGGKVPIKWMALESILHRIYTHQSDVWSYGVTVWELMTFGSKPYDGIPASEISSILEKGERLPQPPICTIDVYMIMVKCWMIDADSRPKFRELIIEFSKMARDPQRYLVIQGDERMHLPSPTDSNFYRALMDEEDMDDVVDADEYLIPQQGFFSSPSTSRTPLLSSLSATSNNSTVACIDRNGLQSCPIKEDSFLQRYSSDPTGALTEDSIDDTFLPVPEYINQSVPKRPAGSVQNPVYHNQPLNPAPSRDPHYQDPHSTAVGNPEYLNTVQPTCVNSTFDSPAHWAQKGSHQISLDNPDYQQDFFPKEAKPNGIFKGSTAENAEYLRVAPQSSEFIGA

EGFR (murine), sequence (P00533 whole entry, looked up): as above

In experiment [1], `COc1ccccc1N1CCN(c2ncc3ncnc(Nc4ccc(F)c(Cl)c4)c3n2)CC1` returned a half-inhibitory concentration (IC50) of over 20 nM. In the case of `CC(C)(C)OC(=O)N1CCCC(Nc2ncc3ncnc(Nc4ccc(F)c(Cl)c4)c3n2)CC1` (stereo not drawn), the IC50 in experiment [1] was over 10 nM. `COC(=O)[C@H]1CC[C@H](Nc2ncc3ncnc(Nc4ccc(F)c(Cl)c4)c3n2)CC1` returned an IC50 in experiment [1] of over 10 nM. Turning to `Fc1ccc(Nc2ncnc3cnc(NC4CN5CCC4CC5)nc23)cc1Cl` (stereo not drawn), the IC50 in experiment [1] was over 10 nM; in experiment [2] it was 100 to 1000 nM. As to `CCN(CC)CC(C)Nc1ncc2ncnc(Nc3ccc(F)c(Cl)c3)c2n1` (stereo not drawn), the IC50 in experiment [1] was over 1 nM; in experiment [2] it was 100 to 1000 nM.

For `NCC1CCCN(c2ncc3ncnc(Nc4ccc(F)c(Cl)c4)c3n2)C1` (stereo not drawn), in experiment [1], the IC50 was over 1 nM. As for `Nc1c(Br)cc(Nc2ncnc3cnc(N4CCC(N)CC4)nc23)cc1Br`, in experiment [1], the IC50 was over 1 nM. Consider `NC1CCCN(c2ncc3ncnc(Nc4ccc(F)c(Cl)c4)c3n2)CC1` (stereo not drawn), for which, in experiment [1], the half-maximal inhibitory concentration (IC50) is over 1 nM. The same measure, in the same setting: the same measure for `COC(CNc1ncc2ncnc(Nc3ccc(F)c(Cl)c3)c2n1)OC`: over 20 nM; for `Nc1ccc(CNc2ncc3ncnc(Nc4ccc(F)c(Cl)c4)c3n2)cc1`: over 10 nM.

`Fc1ccc(Nc2ncnc3cnc(NC4CCCN(Cc5ccccc5)CC4)nc23)cc1Cl` (stereo not drawn) displayed an IC50 in experiment [1] of over 1 nM. For `Nc1cc(Cl)c(Nc2ncnc3cnc(N[C@H]4CC[C@H](O)CC4)nc23)cc1Cl`, in experiment [1], the IC50 is over 10 nM.

The molecule `Fc1ccc(Nc2ncnc3cnc(NCC45CCN(CC4)CC5)nc23)cc1Cl` came in with an IC50 in experiment [1] of over 1 nM. Same read-out and setting: the same measure for `Fc1ccc(Nc2ncnc3cnc(NC4CCCNCC4)nc23)cc1Cl` (stereo not drawn): over 1 nM; for `O=C(N1CCOCC1)N1CCN(CCNc2ncc3ncnc(Nc4ccc(F)c(Cl)c4)c3n2)CC1`: over 1 nM. `Fc1ccc(Nc2ncnc3cnc(N4CCC(N5CCCC5)CC4)nc23)cc1Cl` showed an IC50 in experiment [1] of 10 nM. Take `CC(N)CNc1ncc2ncnc(Nc3ccc(F)c(Cl)c3)c2n1` (stereo not drawn): the IC50 in experiment [1] was over 10 nM. As to `N#CN1CCC(Nc2ncc3ncnc(Nc4ccc(F)c(Cl)c4)c3n2)CC1`, the IC50 in experiment [1] was over 1 nM. Molecule `Fc1ccc(Nc2ncnc3cnc(N4CCCCCC4)nc23)cc1Cl` showed an IC50 in experiment [1] of over 1 nM. On the same count and under the same terms, as for `CN1CCCN(c2ncc3ncnc(Nc4ccc(F)c(Cl)c4)c3n2)CC1`, the figure is over 10 nM; as for `CN1CCC(C2CCN(c3ncc4ncnc(Nc5ccc(F)c(Cl)c5)c4n3)CC2)CC1`, over 1 nM; as for `CC1CC(c2ccc(O)cc2)CN1c1ncc2ncnc(Nc3ccc(F)c(Cl)c3)c2n1` (stereo not drawn), over 1 nM. In experiment [1], `NCCCNc1ncc2ncnc(Nc3ccc(F)c(Cl)c3)c2n1` came in with an IC50 of over 10 nM.

As to `Fc1ccc(Nc2ncnc3cnc(NCC4CCNCC4)nc23)cc1Cl`, the IC50 in experiment [1] is over 20 nM. The same measure, in the same setting: the same measure for `O[C@H]1CC[C@H](Nc2ncc3ncnc(Nc4cccc(Oc5ccccc5)c4)c3n2)CC1`: over 10 nM; for `Nc1ncc2ncnc(Nc3ccc(F)c(Cl)c3)c2n1`: over 1 nM. On to `CC(CN1CCCCC1)Nc1ncc2ncnc(Nc3ccc(F)c(Cl)c3)c2n1` (stereo not drawn), for which the IC50 in experiment [1] was over 1 nM; in experiment [2], 100 to 1000 nM. In turn, `CN1CCC(N(C)c2ncc3ncnc(Nc4ccc(F)c(Cl)c4)c3n2)CC1` came in with an IC50 in experiment [1] of 10 nM.

In experiment [1], `NCC1CCCC(CNc2ncc3ncnc(Nc4ccc(F)c(Cl)c4)c3n2)C1` (stereo not drawn) had an IC50 of over 1 nM. `NCC1CCN(c2ncc3ncnc(Nc4ccc(F)c(Cl)c4)c3n2)CC1`: the IC50 in experiment [1] is over 1 nM; in experiment [2] it was 100 to 1000 nM. `CC(C)(C)OC(=O)N1CCC(Nc2ncc3ncnc(Nc4ccc(F)c(Cl)c4)c3n2)CC1` displayed an IC50 in experiment [1] of over 10 nM. In turn, `COc1cccc(N2CCN(c3ncc4ncnc(Nc5ccc(F)c(Cl)c5)c4n3)CC2)c1` registered an IC50 in experiment [1] of over 20 nM. For the molecule `Fc1ccc(Nc2ncnc3cnc(N4CCCCC4)nc23)cc1Cl`, the IC50 in experiment [1] was over 1 nM. In the case of `NCCCCNc1ncc2ncnc(Nc3ccc(F)c(Cl)c3)c2n1`, the IC50 in experiment [1] was over 10 nM.

Take `CN1CCC(CNc2ncc3ncnc(Nc4ccc(F)c(Cl)c4)c3n2)CC1`: the IC50 in experiment [1] was over 1 nM. Turning to `COC(=O)N1CCC(Nc2ncc3ncnc(Nc4ccc(F)c(Cl)c4)c3n2)CC1`, the IC50 in experiment [1] is over 10 nM; in experiment [2] it was 100 to 1000 nM. `O=CNC1CCN(c2ncc3ncnc(Nc4ccc(F)c(Cl)c4)c3n2)CC1` registered an IC50 in experiment [1] of over 10 nM. `COC(=O)NC1CCN(c2ncc3ncnc(Nc4ccc(F)c(Cl)c4)c3n2)CC1` came in with an IC50 in experiment [1] of over 10 nM. As to `O[C@H]1CC[C@H](Nc2ncc3ncnc(Nc4ccc(-c5ccccc5)cc4)c3n2)CC1`, the IC50 in experiment [1] was over 10 nM. The same measure, in the same setting: the same measure for `Fc1ccc(Nc2ncnc3cnc(N4CCC(N5CCOCC5)CC4)nc23)cc1Cl`: over 20 nM. As to `Fc1ccc(Nc2ncnc3cnc(N4CCC(C5CCNCC5)CC4)nc23)cc1Cl`, the IC50 in experiment [1] is over 1 nM; in experiment [2] it was 100 to 1000 nM.

For the molecule `CN1CCN(C2CCC(Nc3ncc4ncnc(Nc5ccc(F)c(Cl)c5)c4n3)CC2)CC1` (stereo not drawn), the IC50 in experiment [1] is over 1 nM. In experiment [1], `OCc1cccc(Nc2ncnc3cnc(N[C@H]4CC[C@H](O)CC4)nc23)c1` showed an IC50 of over 1 nM. In experiment [1], `CC(C)(C)OC(=O)N1CCC(CNc2ncc3ncnc(Nc4ccc(F)c(Cl)c4)c3n2)CC1` displayed an IC50 of over 20 nM. The same measure, in the same setting: the same measure for `O=C(N[C@H]1CC[C@H](CNc2ncc3ncnc(Nc4ccc(F)c(Cl)c4)c3n2)CC1)OCc1ccccc1`: over 10 nM; for `COC(=O)[C@H]1CC[C@H](Nc2ncc3ncnc(Nc4cc(Cl)c(N)c(Cl)c4)c3n2)CC1`: over 10 nM; for `OC1CCN(c2ncc3ncnc(Nc4ccc(F)c(Cl)c4)c3n2)CC1`: over 1 nM. In experiment [1], `CCN(CCO)c1ncc2ncnc(Nc3ccc(F)c(Cl)c3)c2n1` displayed an IC50 of over 1 nM. `CC(C)(C)OC(=O)N1CCN(CCNc2ncc3ncnc(Nc4ccc(F)c(Cl)c4)c3n2)CC1` gave an IC50 in experiment [1] of over 1 nM.

`CC(C)(N)CNc1ncc2ncnc(Nc3ccc(F)c(Cl)c3)c2n1` registered an IC50 in experiment [1] of over 10 nM. As for `Nc1c(Cl)cc(Nc2ncnc3cnc(N[C@H]4CC[C@H](C(=O)O)CC4)nc23)cc1Cl`, the IC50 was over 1 nM in experiment [1] and 100 to 1000 nM in experiment [2]. Regarding `Nc1c(Cl)cc(Nc2ncnc3cnc(N[C@H]4CC[C@H](C(=O)N5CCCC5)CC4)nc23)cc1Cl`, the IC50 in experiment [1] was over 1 nM; in experiment [2], 100 to 1000 nM. As to `Fc1ccc(Nc2ncnc3cnc(N4CCCNCC4)nc23)cc1Cl`, in experiment [1], the IC50 is over 10 nM. Regarding `Nc1c(Cl)cc(Nc2ncnc3cnc(N[C@H]4CC[C@H](C(=O)N5CCOCC5)CC4)nc23)cc1Cl`, the IC50 in experiment [1] is over 1 nM; in experiment [2], 100 to 1000 nM. With `NCCNc1ncc2ncnc(Nc3ccc(F)c(Cl)c3)c2n1`, the IC50 in experiment [1] is over 10 nM.

Turning to `NC[C@H]1CC[C@H](Nc2ncc3ncnc(Nc4ccc(F)c(Cl)c4)c3n2)CC1`, the IC50 in experiment [1] was over 1 nM.

With `NCCCCCNc1ncc2ncnc(Nc3ccc(F)c(Cl)c3)c2n1`, in experiment [1], the IC50 is over 1 nM. `NCC1CCC(CNc2ncc3ncnc(Nc4ccc(F)c(Cl)c4)c3n2)CC1` (stereo not drawn): the IC50 was over 1 nM in experiment [1] and 100 to 1000 nM in experiment [2].
